Results reported in US10118930B2, “Piperidinylpyrazolopyrimidinones and their use” (BAYER PHARMA AKTIENGESELLSCHAFT, priority 2015, dated 2018).
Where a name gives a salt, the structure may show the parent alone.

Test system: clot lysis (fibrinolysis) in diluted human citrated plasma, tPA-induced
Assay: Plasma-based clot lysis assay (5%)
Format: biochemical
Details: human citrated platelet-poor plasma 5%, fibrinogen 3 μM, CaCl2 10 mM, tPA 0.2 nM, 37° C., OD at 405 nm
How it was run: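 Clot formation and breakdown triggered by CaCl2 (10 mM final) plus tPA (0.2 nM final) at 37° C, in 5% diluted human plasma supplemented with 3 μM fibrinogen (HEPES/NaCl/Brij buffer, pH 7). IC50 obtained from time courses relative to a blank control.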

Row | Structure (SMILES) | IC50 [nM] | IC50 (hydrochloride) [nM]
1 | CC(C)OC(=O)c1c(C(F)(F)F)nn2c(C3CCNCC3)cc(=O)[nH]c12 [Example 460, Propan-2-yl 5-oxo-7-(piperidin-4-yl)-2-(trifluoromethyl)-4,5-dihydropyrazolo[1,5-a]pyrimidine-3-carboxylate hydrochloride] | 59 | 
2 | O=c1cc(C2CCNCC2)n2ncc(-c3noc(-c4ccccc4F)n3)c2[nH]1 [Example 216, 3-[5-(2-fluorophenyl)-1,2,4-oxadiazol-3-yl]-7-(piperidin-4-yl)pyrazolo[1,5-a]pyrimidin-5 (4H)-one hydrochloride] | 34 | 
3 | COc1ccc(C2(c3nnc(-c4cnn5c(C6CCNCC6)cc(=O)[nH]c45)o3)CC2)cc1 [Example 305, 3-{5-[1-(4-methoxyphenyl)cyclopropyl]-1,3,4-oxadiazol-2-yl}-7-(piperidin-4-yl)pyrazolo[1,5-a]pyrimidin-5(4H)-one hydrochloride] | 20 | 
4 | CN(C)Cc1cnn2c(C3CCNCC3)cc(=O)[nH]c12 [Example 342, 3-[(dimethylamino)methyl]-7-(piperidin-4-yl)pyrazolo[1,5-a]pyrimidin-5(4H)-one hydrochloride] | 170 | 
5 | O=C(NCCN1CCOC1=O)c1cnn2c(C3CCNCC3)cc(=O)[nH]c12 [Example 92, 5-oxo-N-[2-(2-oxo-1,3-oxazolidin-3-yl)ethyl]-7-(piperidin-4-yl)-4,5-dihydropyrazolo[1,5-a]pyrimidine-3-carboxamide hydrochloride] | 33 | 
6 | CC(C)(C)CC1CC(c2cc(=O)[nH]c3c(-c4nc(C(C)(C)C)no4)cnn23)CCN1 (stereo not shown) [Example 303, 3-(3-tert-butyl-1,2,4-oxadiazol-5-yl)-7-[2-(2,2-dimethylpropyl)piperidin-4-yl]pyrazolo[1,5-a]pyrimidin-5(4H)-one hydrochloride] | 38 | 
7 | Cc1nn2c(C3CCNCC3)cc(=O)[nH]c2c1-c1nc(CCOC(C)(C)C)no1 [Example 302, 3-[3-(2-tert-butoxyethyl)-1,2,4-oxadiazol-5-yl]-2-methyl-7-(piperidin-4-yl)pyrazolo[1,5-a]pyrimidin-5(4H)-one hydrochloride] | 6 | 
8 | CC1(c2nc(-c3cnn4c(C5CCNCC5)cc(=O)[nH]c34)no2)CC1 (racemic) [Example 381, Rac-3-[5-(1-Methylcyclopropyl)-1,2,4-oxadiazol-3-yl]-7-(piperidin-4-yl)pyrazolo[1,5-a]pyrimidin-5(4H)-one hydrochloride] | 29 | 
9 | O=c1cc(C2CCNCC2)n2ncc(CN3CCCC3)c2[nH]1 [Example 343, 7-(piperidin-4-yl)-3-(pyrrolidin-1-ylmethyl)pyrazolo[1,5-a]pyrimidin-5(4H)-one hydrochloride] | 130 | 
10 | COc1ccccc1-c1nc(-c2cnn3c(C4CCNCC4)cc(=O)[nH]c23)no1 [Example 219, 3-[5-(2-methoxyphenyl)-1,2,4-oxadiazol-3-yl]-7-(piperidin-4-yl)pyrazolo[1,5-a]pyrimidin-5(4H)-one hydrochloride] | 35 | 
11 | Cc1nn2c(C3CCNCC3)cc(=O)[nH]c2c1-c1nc(C2CCCCC2)no1 [Example 350, 3-(3-cyclohexyl-1,2,4-oxadiazol-5-yl)-2-methyl-7-(piperidin-4-yl)pyrazolo[1,5-a]pyrimidin-5(4H)-one hydrochloride] | 20 | 
12 | COc1ccc(Cc2nnc(-c3cnn4c(C5CCNCC5)cc(=O)[nH]c34)o2)cc1F [Example 447, 3-[5-(3-fluoro-4-methoxybenzyl)-1,3,4-oxadiazol-2-yl]-7-(piperidin-4-yl)pyrazolo[1,5-a]pyrimidin-5(4H)-one hydrochloride] | 14 | 
13 | CCc1noc(-c2cnn3c(C4CCNCC4)cc(=O)[nH]c23)n1 [Example 199, 3-(3-ethyl-1,2,4-oxadiazol-5-yl)-7-(piperidin-4-yl)pyrazolo[1,5-a]pyrimidin-5(4H)-one hydrochloride] |  | 34
14 | O=c1cc(C2CCNCC2)n2nc(-c3cccs3)cc2[nH]1 [Example 25, 7-(Piperidin-4-yl)-2-(2-thienyl)pyrazolo[1,5-a]pyrimidin-5(4H)-one hydrochloride] | 160 | 

Further molecules by falling IC50, results first:

Row | IC50 [nM] | IC50 (hydrochloride) [nM] | Structure (SMILES)
15 | 460 |  | Cc1nn2c(C3CCNCC3)cc(=O)[nH]c2c1C(=O)O [Example 323, 2-methyl-5-oxo-7-(piperidin-4-yl)-4,5-dihydropyrazolo[1,5-a]pyrimidine-3-carboxylic acid hydrochloride]
16 | 61 |  | Cc1nn2c(C3CCNCC3)cc(=O)[nH]c2c1C(=O)OCC(C)(F)F [Example 461, 2,2-difluoropropyl 2-methyl-5-oxo-7-(piperidin-4-yl)-4,5-dihydropyrazolo[1,5-a]pyrimidine-3-carboxylate hydrochloride]
17 | 46 |  | O=C(O)c1cnn2c(C3CCNCC3)cc(=O)[nH]c12 [Example 17, 5-Oxo-7-(piperidin-4-yl)-4,5-dihydropyrazolo[1,5-a]pyrimidine-3-carboxylic acid hydrochloride]
18 | 34 |  | O=c1cc(C2CCNCC2)n2ncc(-c3nc(Cc4ccc(Cl)cc4)no3)c2[nH]1 [Example 210, 3-[3-(4-chlorobenzyl)-1,2,4-oxadiazol-5-yl]-7-(piperidin-4-yl)pyrazolo[1,5-a]pyrimidin-5(4H)-one hydrochloride]
19 | 34 |  | NC(=O)c1noc(-c2cnn3c(C4CCNCC4)cc(=O)[nH]c23)n1 [Example 200, 5-[5-oxo-7-(piperidin-4-yl)-4,5-dihydropyrazolo[1,5-a]pyrimidin-3-yl]-1,2,4-oxadiazole-3-carboxamide hydrochloride]
20 | 34 |  | O=c1cc(C2CCNCC2)n2ncc(-c3noc(-c4cccc(C(F)(F)F)c4)n3)c2[nH]1 [Example 227, 7-(piperidin-4-yl)-3-{5-[3-(trifluoromethyl)phenyl]-1,2,4-oxadiazol-3-yl}pyrazolo[1,5-a]pyrimidin-5(4H)-one hydrochloride]
21 | 34 |  | O=c1cc(C2CCNCC2)n2ncc(-c3nnc(-c4ccccc4F)o3)c2[nH]1 [Example 186, 3-[5-(2-fluorophenyl)-1,3,4-oxadiazol-2-yl]-7-(piperidin-4-yl)pyrazolo[1,5-a]pyrimidin-5(4H)-one hydrochloride]
22 | 23 |  | Cc1ccccc1-c1noc(-c2c(C)nn3c(C4CCNCC4)cc(=O)[nH]c23)n1 [Example 440, 2-methyl-3-[3-(2-methylphenyl)-1,2,4-oxadiazol-5-yl]-7-(piperidin-4-yl)pyrazolo[1,5-a]pyrimidin-5(4H)-one hydrochloride]
23 | 18 |  | O=c1cc(C2CCNCC2)n2ncc(-c3nc(C4CC4)cs3)c2[nH]1 [Example 311, 3-(4-cyclopropyl-1,3-thiazol-2-yl)-7-(piperidin-4-yl)pyrazolo[1,5-a]pyrimidin-5(4H)-one hydrochloride]
24 | 11 |  | Cc1nn2c(C3CCNCC3)cc(=O)[nH]c2c1-c1nnc(C(C)(C)C)o1 [Example 338, 3-(5-tert-butyl-1,3,4-oxadiazol-2-yl)-2-methyl-7-(piperidin-4-yl)pyrazolo[1,5-a]pyrimidin-5(4H)-one hydrochloride]
25 | 8.7 |  | O=c1cc(C2CCNCC2)n2ncc(-c3nnc(-c4ccc(C(F)(F)F)cc4)o3)c2[nH]1 [Example 166, 7-(piperidin-4-yl)-3-{5-[4-(trifluoromethyl)phenyl]-1,3,4-oxadiazol-2-yl}pyrazolo[1,5-a]pyrimidin-5(4H)-one hydrochloride]
